What was measured:
[1] = system: giant foxtail; test: Test B pre/postemergence giant foxtail; format: in vivo, Setaria faberii; settings: for Giant foxtail plant response rating: scale of 0 to 10 where 0 is no effect and 10 is complete control
How it was run: (§1)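 Response is a visual 0-to-10 score relative to untreated plants, where 0 means no effect and 10 means complete control, taken twelve to sixteen days after application. Treatments went onto soil at planting and onto foliage of 1- to 4-leaf plants, using a surfactant-containing non-phytotoxic solvent.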

[2] = system: morningglory; test: Test B pre/postemergence morningglory; format: in vivo, Ipomoea hederacea; settings: for Morningglory plant response rating: scale of 0 to 10 where 0 is no effect and 10 is complete control
How it was run: as §1

[3] = system: purple nutsedge; test: Test B pre/postemergence purple nutsedge; format: in vivo, Cyperus rotundus; settings: for Nutsedge plant response rating: scale of 0 to 10 where 0 is no effect and 10 is complete control
How it was run: as §1

[4] = system: wild oat; test: Test B pre/postemergence wild oat; format: in vivo, Avena fatua; settings: for Wild oats plant response rating: scale of 0 to 10 where 0 is no effect and 10 is complete control
How it was run: as §1

[5] = system: wheat; test: Test B pre/postemergence wheat; format: in vivo, Triticum aestivum; settings: for Wheat plant response rating: scale of 0 to 10 where 0 is no effect and 10 is complete control
How it was run: as §1

[6] = system: pigweed; test: Test B pre/postemergence pigweed; format: in vivo, Amaranthus retroflexus; settings: for Redroot pigweed plant response rating: scale of 0 to 10 where 0 is no effect and 10 is complete control
How it was run: as §1

[7] = system: cocklebur; test: Test B pre/postemergence cocklebur; format: in vivo, Xanthium strumarium; settings: for Cocklebur plant response rating: scale of 0 to 10 where 0 is no effect and 10 is complete control
How it was run: as §1

[8] = system: rape; test: Test B pre/postemergence rape; format: in vivo, Brassica napus; settings: for Rape plant response rating: scale of 0 to 10 where 0 is no effect and 10 is complete control
How it was run: as §1

[9] = system: corn; test: Test B pre/postemergence corn; format: in vivo, Zea mays; settings: for Corn plant response rating: scale of 0 to 10 where 0 is no effect and 10 is complete control
How it was run: as §1

[10] = system: crabgrass; test: Test B pre/postemergence crabgrass; format: in vivo, Digitaria sanguinalis; settings: for Crabgrass plant response rating: scale of 0 to 10 where 0 is no effect and 10 is complete control
How it was run: as §1

[11] = system: surinam grass; test: Test B pre/postemergence surinam grass; format: in vivo, Brachiaria decumbens; settings: for B. signalgrass plant response rating: scale of 0 to 10 where 0 is no effect and 10 is complete control
How it was run: as §1

[12] = system: velvetleaf; test: Test B pre/postemergence velvetleaf; format: in vivo, Abutilon theophrasti; settings: for Velvetleaf plant response rating: scale of 0 to 10 where 0 is no effect and 10 is complete control
How it was run: as §1

[13] = system: blackgrass; test: Test B pre/postemergence blackgrass; format: in vivo, Alopecurus myosuroides; settings: for Blackgrass plant response rating: scale of 0 to 10 where 0 is no effect and 10 is complete control
How it was run: as §1

[14] = system: sugar beet; test: Test B pre/postemergence sugar beet; format: in vivo, Beta vulgaris; settings: for Sugarbeets plant response rating: scale of 0 to 10 where 0 is no effect and 10 is complete control
How it was run: as §1

[15] = system: soybean; test: Test B pre/postemergence soybean; format: in vivo, Glycine max; settings: for Soybean plant response rating: scale of 0 to 10 where 0 is no effect and 10 is complete control
How it was run: as §1

[16] = system: bedstraw; test: Test B pre/postemergence bedstraw; format: in vivo, Galium aparine; settings: for Bedstraw plant response rating: scale of 0 to 10 where 0 is no effect and 10 is complete control
How it was run: as §1

[17] = Postemergence, Rate 125 g/ha, scale 0 to 10, 0 is no effect, 10 is complete control
[18] = Postemergence, Rate 250 g/ha, scale 0 to 10, 0 is no effect, 10 is complete control
[19] = Preemergence, Rate 62 g/ha, scale 0 to 10 (0 no effect, 10 complete control)
[20] = Rate 500 g/ha, Postemergence, scale 0 to 10, 0 no effect, 10 complete control

`CC(C)N(C(=O)n1oc(=O)n(C2(C)CC2)c1=O)c1ccc(Cl)cc1` [Compound 361] was tested, and the “Plant response rating, Giant foxtail” value [1, 17] was 4, the “Plant response rating, Giant foxtail” value [1, 18] was 5 and the “Plant response rating, Giant foxtail” value [1, 19] was 7. For the same compound, the “Giant foxtail plant response rating (0 to 10 scale)” value ([1]; Preemergence, Rate 125 g/ha) was 9, the “Giant foxtail plant response rating” value ([1]; Preemergence, Rate 250 g/ha) was 10 and the “Giant foxtail plant response rating” value ([1]; Preemergence, Rate 500 g/ha) was 10. For the same compound, the “Giant foxtail plant response rating” value ([1]; Rate 62 g/ha, Postemergence) was 1, the “Plant response rating, Giant foxtail” value [1, 20] was 5 and the “Plant response rating, Morningglory” value [2, 17] was 2. For the same compound, the “Plant response rating, Morningglory” value [2, 18] was 7, the “Plant response rating, Morningglory” value [2, 19] was 0 and the “Morningglory plant response rating (0 to 10 scale)” value ([2]; Preemergence, Rate 125 g/ha) was 0. The “Morningglory plant response rating” value ([2]; Preemergence, Rate 250 g/ha) was 0, the “Morningglory plant response rating” value ([2]; Preemergence, Rate 500 g/ha) was 0 and the “Morningglory plant response rating” value ([2]; Rate 62 g/ha, Postemergence) was 1. The “Plant response rating, Nutsedge” value [3, 17] was 0, the “Plant response rating, Nutsedge” value [3, 18] was 0 and the “Plant response rating, Nutsedge” value [3, 19] was 0. For the same compound, the “Nutsedge plant response rating (0 to 10 scale)” value ([3]; Preemergence, Rate 125 g/ha) was 0, the “Nutsedge plant response rating” value ([3]; Preemergence, Rate 250 g/ha) was 0 and the “Nutsedge plant response rating” value ([3]; Preemergence, Rate 500 g/ha) was 0. The “Nutsedge plant response rating” value ([3]; Rate 62 g/ha, Postemergence) was 0, the “Plant response rating, Nutsedge” value [3, 20] was 0 and the “Plant response rating, Wild oats” value [4, 17] was 2. For the same compound, the “Plant response rating, Wild oats” value [4, 18] was 6, the “Plant response rating, Wild oats” value [4, 19] was 7 and the “Wild oats plant response rating (0 to 10 scale)” value ([4]; Preemergence, Rate 125 g/ha) was 8. For the same compound, the “Wild oats plant response rating” value ([4]; Preemergence, Rate 250 g/ha) was 8, the “Wild oats plant response rating” value ([4]; Preemergence, Rate 500 g/ha) was 10 and the “Wild oats plant response rating” value ([4]; Rate 62 g/ha, Postemergence) was 0. The “Plant response rating, Wild oats” value [4, 20] was 6, the “Plant response rating, Wheat” value [5, 17] was 0 and the “Plant response rating, Wheat” value [5, 18] was 0. For the same compound, the “Plant response rating, Wheat” value [5, 19] was 0, the “Wheat plant response rating (0 to 10 scale)” value ([5]; Preemergence, Rate 125 g/ha) was 0 and the “Wheat plant response rating” value ([5]; Preemergence, Rate 250 g/ha) was 2. For the same compound, the “Wheat plant response rating” value ([5]; Preemergence, Rate 500 g/ha) was 6, the “Wheat plant response rating” value ([5]; Rate 62 g/ha, Postemergence) was 0 and the “Plant response rating, Wheat” value [5, 20] was 2. For the same compound, the “Plant response rating, Redroot pigweed” value [6, 17] was 5, the “Plant response rating, Redroot pigweed” value [6, 18] was 6 and the “Plant response rating, Redroot pigweed” value [6, 19] was 1. The “Redroot pigweed plant response rating (0 to 10 scale)” value ([6]; Preemergence, Rate 125 g/ha) was 7, the “Redroot pigweed plant response rating” value ([6]; Preemergence, Rate 250 g/ha) was 8 and the “Redroot pigweed plant response rating” value ([6]; Preemergence, Rate 500 g/ha) was 10. The “Redroot pigweed plant response rating” value ([6]; Rate 62 g/ha, Postemergence) was 3, the “Plant response rating, Redroot pigweed” value [6, 20] was 7 and the “Plant response rating, Cocklebur” value [7, 17] was 0. For the same compound, the “Plant response rating, Cocklebur” value [7, 18] was 0, the “Plant response rating, Cocklebur” value [7, 19] was 0 and the “Cocklebur plant response rating (0 to 10 scale)” value ([7]; Preemergence, Rate 125 g/ha) was 0. For the same compound, the “Cocklebur plant response rating” value ([7]; Preemergence, Rate 250 g/ha) was 0, the “Cocklebur plant response rating” value ([7]; Preemergence, Rate 500 g/ha) was 0 and the “Cocklebur plant response rating” value ([7]; Rate 62 g/ha, Postemergence) was 0. The “Plant response rating, Cocklebur” value [7, 20] was 2, the “Plant response rating, Rape” value [8, 17] was 3 and the “Plant response rating, Rape” value [8, 18] was 3. The “Plant response rating, Rape” value [8, 19] was 4, the “Rape plant response rating (0 to 10 scale)” value ([8]; Preemergence, Rate 125 g/ha) was 5 and the “Rape plant response rating” value ([8]; Preemergence, Rate 250 g/ha) was 5. For the same compound, the “Rape plant response rating” value ([8]; Preemergence, Rate 500 g/ha) was 6, the “Rape plant response rating” value ([8]; Rate 62 g/ha, Postemergence) was 2 and the “Plant response rating, Rape” value [8, 20] was 4. The “Plant response rating, Corn” value [9, 17] was 0, the “Plant response rating, Corn” value [9, 18] was 0 and the “Plant response rating, Corn” value [9, 19] was 0. For the same compound, the “Corn plant response rating (0 to 10 scale)” value ([9]; Preemergence, Rate 125 g/ha) was 0, the “Corn plant response rating” value ([9]; Preemergence, Rate 250 g/ha) was 1 and the “Corn plant response rating” value ([9]; Preemergence, Rate 500 g/ha) was 6. The “Corn plant response rating” value ([9]; Rate 62 g/ha, Postemergence) was 0, the “Plant response rating, Corn” value [9, 20] was 0 and the “Plant response rating, Crabgrass” value [10, 17] was 2. The “Plant response rating, Crabgrass” value [10, 18] was 2, the “Plant response rating, Crabgrass” value [10, 19] was 2 and the “Crabgrass plant response rating (0 to 10 scale)” value ([10]; Preemergence, Rate 125 g/ha) was 7. The “Crabgrass plant response rating” value ([10]; Preemergence, Rate 250 g/ha) was 7, the “Crabgrass plant response rating” value ([10]; Preemergence, Rate 500 g/ha) was 9 and the “Crabgrass plant response rating” value ([10]; Rate 62 g/ha, Postemergence) was 0. For the same compound, the “Plant response rating, Crabgrass” value [10, 20] was 5, the “Plant response rating, B. signalgrass” value [11, 17] was 0 and the “Plant response rating, B. signalgrass” value [11, 18] was 3. The “Plant response rating, B. signalgrass” value [11, 19] was 3, the “B. signalgrass plant response rating (0 to 10 scale, 0 is no effect, 10 is complete control)” value ([11]; Preemergence, Rate 125 g/ha) was 4 and the “B. signalgrass plant response rating” value ([11]; Preemergence, Rate 250 g/ha) was 4. For the same compound, the “B. signalgrass plant response rating” value ([11]; Preemergence, Rate 500 g/ha) was 6, the “B. signalgrass plant response rating” value ([11]; Rate 62 g/ha, Postemergence) was 0 and the “Plant response rating, B. signalgrass” value [11, 20] was 4. The “Plant response rating, Velvetleaf” value [12, 17] was 0, the “Plant response rating, Velvetleaf” value [12, 18] was 0 and the “Plant response rating, Velvetleaf” value [12, 19] was 0. For the same compound, the “Velvetleaf plant response rating (0 to 10 scale)” value ([12]; Preemergence, Rate 125 g/ha) was 0, the “Velvetleaf plant response rating” value ([12]; Preemergence, Rate 250 g/ha) was 4 and the “Velvetleaf plant response rating” value ([12]; Preemergence, Rate 500 g/ha) was 5. For the same compound, the “Velvetleaf plant response rating” value ([12]; Rate 62 g/ha, Postemergence) was 0, the “Plant response rating, Velvetleaf” value [12, 20] was 3 and the “Plant response rating, Blackgrass” value [13, 17] was 7. For the same compound, the “Plant response rating, Blackgrass” value [13, 18] was 8, the “Plant response rating, Blackgrass” value [13, 19] was 3 and the “Blackgrass plant response rating (0 to 10 scale)” value ([13]; Preemergence, Rate 125 g/ha) was 8. For the same compound, the “Blackgrass plant response rating” value ([13]; Preemergence, Rate 250 g/ha) was 10, the “Blackgrass plant response rating” value ([13]; Preemergence, Rate 500 g/ha) was 10 and the “Blackgrass plant response rating” value ([13]; Rate 62 g/ha, Postemergence) was 5. The “Plant response rating, Blackgrass” value [13, 20] was 8, the “Plant response rating, Sugarbeets” value [14, 17] was 5 and the “Plant response rating, Sugarbeets” value [14, 18] was 5. For the same compound, the “Plant response rating, Sugarbeets” value [14, 19] was 0, the “Sugarbeets plant response rating (0 to 10 scale)” value ([14]; Preemergence, Rate 125 g/ha) was 2 and the “Sugarbeets plant response rating” value ([14]; Preemergence, Rate 250 g/ha) was 6. For the same compound, the “Sugarbeets plant response rating” value ([14]; Preemergence, Rate 500 g/ha) was 6, the “Sugarbeets plant response rating” value ([14]; Rate 62 g/ha, Postemergence) was 2 and the “Plant response rating, Sugarbeets” value [14, 20] was 6. For the same compound, the “Plant response rating, Soybean” value [15, 17] was 4, the “Plant response rating, Soybean” value [15, 18] was 5 and the “Plant response rating, Soybean” value [15, 19] was 0. The “Soybean plant response rating (0 to 10 scale)” value ([15]; Preemergence, Rate 125 g/ha) was 0, the “Soybean plant response rating” value ([15]; Preemergence, Rate 250 g/ha) was 0 and the “Soybean plant response rating” value ([15]; Preemergence, Rate 500 g/ha) was 1. For the same compound, the “Soybean plant response rating” value ([15]; Rate 62 g/ha, Postemergence) was 2, the “Plant response rating, Soybean” value [15, 20] was 5 and the “Plant response rating, Bedstraw” value [16, 17] was 7. For the same compound, the “Plant response rating, Bedstraw” value [16, 18] was 8, the “Plant response rating, Bedstraw” value [16, 19] was 0 and the “Bedstraw plant response rating (0 to 10 scale)” value ([16]; Preemergence, Rate 125 g/ha) was 0. For the same compound, the “Bedstraw plant response rating” value ([16]; Preemergence, Rate 250 g/ha) was 0, the “Bedstraw plant response rating” value ([16]; Preemergence, Rate 500 g/ha) was 2 and the “Bedstraw plant response rating” value ([16]; Rate 62 g/ha, Postemergence) was 7. The “Plant response rating, Bedstraw” value [16, 20] was 8.
